Here are results for two molecules from patent publication US20130040331A1, “LABEL-FREE METHODS RELATED TO hERG POTASSIUM ION [sequence]” (CORNING INCORPORATED, priority 2009, published 2013).

The structures appear in SMILES notation.

One series concerns HT29 cells. Put plainly: Label-free RWG biosensor (Epic) DMR assay, agonism mode, HT29 cells endogenously expressing hERG. It counts as cell-based, human. As to the method:
(§1) Epic® wavelength interrogation system (Corning Inc., Corning, N.Y.) was used for whole cell sensing. This system consists of a temperature-control unit, an optical detection unit, and an on-board liquid handling unit with robotics. The detection unit is centered on integrated fiber optics, and enables kinetic measures of cellular responses with a time interval of ˜15 sec.
(§2) Cells were plated in 384-well Epic® cell culture treated plate (Corning Cat#5040) 16-20 hours before assay (15000 cells/well for HEK293 and HEK-hERG cells, 30000 cells/well for HT29 cells). For both HEK-hERG and its parental HEK293 cells, each well was coated with 10 μl 5 μg/ml fibronectin. One hour before assay, cells were washed twice on a BioTek ELx405 Select washer with Hank's Balanced Salt Solution (HBSS) containing 20 mM Hepes. Cells were incubated in 40 μl/well HBSS at 28° C. inside the Epic system for one hour. For each assay, a 2-min baseline was initiated, followed by addition of 10 μl compound solutions (5×) and the cell responses were recorded continuously for one hour.
(§3) All studies were carried out at a controlled temperature (28° C.). At least two independent sets of experiments, each with at least three replicates, were performed. […] All dose-dependent responses were analyzed using non-linear regression method with the GraphPad Prism 5.
(§4) Three different types of cells: human colon cancerous cell line HT-29, HEK293 and its engineered HEK-hERG cell lines were used. HT-29 is known to endogenously express hERG channels. HEK293 is a native cell line without endogenously expressed hERG channels, while HEK-hERG is an engineered HEK293 cells having stably expressed hERG channels. Mallotoxin, a newly discovered hERG activator, was used to activate hERG channels at or near physiological conditions (i.e., 1×HBSS buffered conditions).
(In general: Block of hERG is tested as a sign of cardiac risk.)

The test system of a further series is HEK-hERG cells. Put plainly: Label-free RWG biosensor (Epic) DMR assay, agonism mode, HEK-hERG cells stably expressing hERG. The format is cell-based, human. The protocol: as §1, §2, §3, §4
For series [1], the system named is mallotoxin DMR signal in HT29 cells. The experiment in a line: DMR modulation index against the mallotoxin DMR signal in HT29 cells. The format is cell-based, human.
Text: (§5) A “molecule modulation index” or like terms is an index to display the ability of the molecule to modulate the biosensor output signals of the panels of markers acting on the panel of cells. The modulation index is generated by normalizing a specific biosensor output signal parameter of a response of a cell upon stimulation with a marker in the presence of a molecule against that in the absence of any molecule.
as §1, §2, §3
(§6) The DMR modulation index was generated by normalizing the mallotoxin DMR signal in either cell line in the presence of compound […] to its corresponding DMR signal in the absence of the compound, and the percentage of modulation was based on the amplitude of the mallotoxin DMR signal at a specific time (−18 min after stimulation for HEK-hERG cells, and ˜50 min after stimulation for HT29 cells, respectively). Mallotoxin is known to display polypharmacology. It is also known to be a protein kinase C (PKC) inhibitor; and PKC is a downstream signaling component of hERG activation. Thus, it would be difficult or almost impossible to assign the mode(s) of action of mallotoxin to be a hERG activator when either cell line is individually assayed with the label-free biosensor (i.e., Epic® system). […] However, combining the primary DMR profiles of a compound across the three cell lines tested with the modulation index of the compound against the mallotoxin responses in both HT29 and […] cells can correctly identify whether the compound is a hERG activator or not. The results shown in FIG. 1 indicate that indeed mallotoxin is a hERG activator; and the activation of hERG can result in detectable biosensor responses in the two hERG expressing cell lines.

For series [2], the system named is mallotoxin DMR signal in HEK-hERG cells. It counts as cell-based, human.
Text: as §5, §1, §2, §3, §6

For series [3], the system named is hERG channel or hERG-associated signaling complex. Put plainly: Classification of hERG modulators by label-free biosensor profiles across three cell lines plus mallotoxin modulation index. The format is cell-based, human.
Text: The traditional hERG ion channel assay involves assaying ion flux such as Rb^+ flux using ion absorption assays, or assaying hERG currents directly using patch clamping methods. Traditionally, a molecule which causes increase in Rb^+ flux and/or hERG currents is referred to a hERG activator, while a molecule which inhibits Rb^+ flux and/or hERG currents is referred to a hERG inhibitor. […] These hERG activators may or may not result in detectable biosensor signals in cells, using label-free biosensor cellular assays. A hERG activator that results in a detectable biosensor signal in a hERG expressing cell via hERG or hERG signaling complex is also referred to a label-free biosensor hERG activator.
Disclosed are methods of classifying a molecule for modulating hERG activity, comprising the steps: a. incubating a molecule individually with at least three different types of cells consisting of a native cell endogenously expressing hERG, an engineered cell stably expressing hERG and its parental cell without expressing hERG, and b. monitoring the molecule induced cellular response on each cell type with a label-free biosensor cellular assay,
Also disclosed are methods, further comprising as steps c) incubating a label-free biosensor hERG activator with each cell type in the presence of the molecule, d. monitoring the label-free biosensor hERG activator induced cellular response on each cell type in the presence of the molecule, e. generating a biosensor modulation index of the molecule against the label-free biosensor hERG activator induced biosensor signals in the two hERG expressing cell types.
as §6

The next series addresses hERG channel (Homo sapiens, UniProt Q12809). Put plainly: Rb+ flux assay using HEK-hERG cells. Conditions: for effect on hERG ion flux (Rb+ flux, FIG. 6): HEK-hERG cells, overall statement, KCl and concentration not specified.
[4] abbreviates: 5 mM KCl, compound at 10 or 50 μM.
[5] abbreviates: pretreatment with 16 micromolar compound, then 16 micromolar mallotoxin.

Chain of hERG channel (Q12809 whole entry): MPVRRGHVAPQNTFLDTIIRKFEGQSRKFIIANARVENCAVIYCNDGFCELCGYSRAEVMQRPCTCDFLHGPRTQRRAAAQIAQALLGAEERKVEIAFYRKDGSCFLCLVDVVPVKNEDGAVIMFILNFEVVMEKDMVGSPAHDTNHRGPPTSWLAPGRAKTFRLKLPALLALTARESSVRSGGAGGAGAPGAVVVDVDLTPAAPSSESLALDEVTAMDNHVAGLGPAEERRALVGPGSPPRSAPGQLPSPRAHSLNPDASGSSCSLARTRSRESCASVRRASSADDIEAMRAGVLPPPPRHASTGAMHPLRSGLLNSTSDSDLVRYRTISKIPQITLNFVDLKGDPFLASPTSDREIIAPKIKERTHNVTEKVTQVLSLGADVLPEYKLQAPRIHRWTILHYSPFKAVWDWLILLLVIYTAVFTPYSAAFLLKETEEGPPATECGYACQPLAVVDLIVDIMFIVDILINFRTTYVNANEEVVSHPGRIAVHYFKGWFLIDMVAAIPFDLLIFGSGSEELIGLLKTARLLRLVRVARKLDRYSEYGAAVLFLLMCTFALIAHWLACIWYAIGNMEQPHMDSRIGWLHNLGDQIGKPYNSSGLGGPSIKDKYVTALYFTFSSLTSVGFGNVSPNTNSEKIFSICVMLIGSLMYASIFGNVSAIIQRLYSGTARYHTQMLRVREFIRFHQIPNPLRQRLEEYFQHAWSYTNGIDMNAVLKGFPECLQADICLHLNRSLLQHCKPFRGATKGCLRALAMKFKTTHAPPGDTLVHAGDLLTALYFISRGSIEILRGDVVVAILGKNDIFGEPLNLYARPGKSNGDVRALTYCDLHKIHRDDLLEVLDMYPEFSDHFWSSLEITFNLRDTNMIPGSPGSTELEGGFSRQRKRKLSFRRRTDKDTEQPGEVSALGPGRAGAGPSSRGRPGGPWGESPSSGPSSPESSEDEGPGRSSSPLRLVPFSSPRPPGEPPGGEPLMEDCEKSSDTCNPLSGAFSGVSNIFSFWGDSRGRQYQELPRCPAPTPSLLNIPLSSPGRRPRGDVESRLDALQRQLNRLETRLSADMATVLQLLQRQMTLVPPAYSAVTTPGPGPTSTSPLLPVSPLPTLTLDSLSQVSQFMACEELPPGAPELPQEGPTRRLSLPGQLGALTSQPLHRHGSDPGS

On to `O=C(O)c1ccccc1Nc1cccc(C(F)(F)F)c1` [flufenamic acid], for which, in the series on HT29 cells (compound at 10 μM), the “DMR signal in HT29 cells” value was “robust DMR signals”. In addition, the “DMR signal in HEK-hERG cells” value in the series with HEK-hERG cells (compound at 10 μM) is “robust DMR signals”. For the same molecule, the “modulation index against mallotoxin in HT29 cells” value in series [1] (compound 10 micromolar, mallotoxin 16 micromolar, amplitude ~50 min after stimulation) is given as −90%. In series [1] (compound at 10 micromolar, mallotoxin 16 micromolar), the “modulation of the mallotoxin DMR signal in HT29 cells” value is reported as “selectively attenuated”. Besides, the “score of modulation index in coordination, HEK-hERG coordinate” value in series [2] (10% modulation = 1 score unit) is given as 1. Also, the “modulation index against mallotoxin in HEK-hERG cells” value in series [2] (compound 10 micromolar, mallotoxin 16 micromolar, amplitude 18 min after stimulation) was “~+12%”. The “hERG pathway activity class by label-free biosensor” value in series [3] is on record as “hERG pathway activator”. In addition, the “Rb+ signal in HEK-hERG cells” value on hERG channel (setting [4]) is “small and dose-dependent increase”. Further, the “effect on hERG ion flux (Rb+ flux, FIG. 6)” value at hERG channel is on record as “weak hERG ion flux activator”.
Consider `CC(=O)c1c(O)c(C)c(O)c(Cc2c(O)c3c(c(C(=O)/C=C/c4ccccc4)c2O)OC(C)(C)C=C3)c1O` [mallotoxin], for which the “DMR signal in HT29 cells” value in the series with HT29 cells (compound at 16 micromolar) is on record as “robust DMR signal”. Besides, the half-maximal effective concentration (EC50) in the series on HEK-hERG cells (amplitudes at 18 min after stimulation, read-out: apparent EC50 of dose-dependent DMR signal in HEK-hERG cells) was about 25 µM. Further, in the series on HEK-hERG cells (compound at 16 micromolar), the “DMR signal in HEK-hERG cells” value is “robust DMR signal”. In series [1] (setting [5]), the “modulation of the mallotoxin DMR signal in HT29 cells” value is “completely caused the desensitization”. For the same molecule, the “modulation of the mallotoxin DMR signal in HEK-hERG cells” value in series [2] (setting [5]) is “completely caused the desensitization”. Further, the “hERG pathway activity class by label-free biosensor” value in series [3] is “label-free hERG pathway activator”. For the same molecule, the “Rb+ signal in HEK-hERG cells” value at hERG channel (setting [4]) was “significant increase”; on hERG channel (40 mM KCl, compound at 10 μM), “obvious increase”. In addition, the “effect on hERG ion flux (Rb+ flux, FIG. 6)” value at hERG channel is “strong hERG ion flux activator”.

For orientation: EC50 means the midpoint of the concentration-response curve.
